From paper PMC6130598, “Isolation, characterization, and in silico, in vitro and in vivo antiulcer studies of isoimperatorin crystallized from Ostericum koreanum” (Pharmaceutical Biology, 2016)

Target: jack bean urease (Canavalia ensiformis, UniProt P07374)
Test: colorimetric urease inhibition assay (phenol/hypochlorite ammonia detection, […] nm)
Assay type: biochemical

jack bean urease, sequence (P07374 whole entry, looked up): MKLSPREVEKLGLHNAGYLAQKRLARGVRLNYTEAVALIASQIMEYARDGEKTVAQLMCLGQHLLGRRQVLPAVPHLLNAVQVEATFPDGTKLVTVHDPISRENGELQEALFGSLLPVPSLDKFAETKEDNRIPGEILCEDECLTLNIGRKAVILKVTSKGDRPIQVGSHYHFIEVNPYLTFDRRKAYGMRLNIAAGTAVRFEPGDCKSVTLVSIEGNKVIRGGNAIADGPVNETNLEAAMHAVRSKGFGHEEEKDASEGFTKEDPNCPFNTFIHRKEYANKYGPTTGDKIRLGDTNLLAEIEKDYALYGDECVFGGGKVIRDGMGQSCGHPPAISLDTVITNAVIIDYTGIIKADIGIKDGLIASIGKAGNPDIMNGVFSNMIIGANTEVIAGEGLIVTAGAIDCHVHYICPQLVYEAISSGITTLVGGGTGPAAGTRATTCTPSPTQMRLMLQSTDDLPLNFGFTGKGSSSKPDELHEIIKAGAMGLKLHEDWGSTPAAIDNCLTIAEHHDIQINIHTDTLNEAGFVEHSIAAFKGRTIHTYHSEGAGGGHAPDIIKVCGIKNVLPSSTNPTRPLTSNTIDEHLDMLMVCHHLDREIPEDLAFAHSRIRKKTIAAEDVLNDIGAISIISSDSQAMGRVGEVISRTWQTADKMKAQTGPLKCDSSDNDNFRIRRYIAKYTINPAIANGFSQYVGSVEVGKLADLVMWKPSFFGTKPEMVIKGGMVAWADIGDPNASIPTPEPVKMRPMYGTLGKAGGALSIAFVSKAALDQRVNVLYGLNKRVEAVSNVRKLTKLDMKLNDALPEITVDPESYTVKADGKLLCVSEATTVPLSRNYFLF

Q: `NC(N)=S` [thiourea] was tested. Which IC50 did it give?
A: Its IC50 is 33.6 µM.

Q: With `CC(C)=CCOc1c2ccoc2cc2oc(=O)ccc12` [isoimperatorin] as the compound, how does the IC50 read?
A: Its IC50 is 36.4 µM.
